Measurements published in patent US11141429B2, “Composition and use of macro-minerals to lower postprandial glycemic response and reduce body weight” (American University of Beirut, priority 2016, dated 2021).

What was measured:
Assay type in all cases: in vivo, human
lean male subjects = experiment: Postprandial energy expenditure after high carbohydrate meal with or without P (ventilated hood); conditions: 500 Kcal high carbohydrate meal with 500 mg of P
Procedure: The objective was to determine the effect of phosphorus (P) ingestion with high carbohydrate meal on postprandial energy expenditure. P ingestion increases postprandial thermogenesis of the subjects.
A cross over study was conducted on six lean male subjects. Subjects received a 500 Kcal high carbohydrate meal (CHO: 65% E; Fat: 31% E; Protein: 4% E) with (500 mg of P) or without P. Energy expenditure was measured at baseline and at 30 minute intervals for 4 hours following meal ingestion using a ventilated hood and canopy system COSMED QUARK CPET unit.

healthy male subjects [1] = experiment: Experiment 2: effect of pre-phosphorus ingestion (60 min before glucose) on OGTT
Procedure: (§1) The example was comprised of two experiments. Healthy male subjects were recruited to perform the experiments (Table 1). Placebo (cellulose) or P (125 mg of potassium phosphate per tablet) tablets, which had similar weight and color, were administered to subjects in a randomized order to prevent order-of-treatment effect. The consent forms were obtained from patients.
Based on data from experiment 1, peak serum P concentration (60 min) was associated with significant decrease in serum glucose and insulin levels. Thus, experiment 2 was designed to investigate whether P intake one hour prior to glucose ingestion would potentiate the effect of P on postprandial glucose and insulin levels. Eight over-night fasted subjects (age: 27.3±1.68 years; BMI: 23.5±0.97 kg/m^2) (Table 1: Experiment 2) attended 2 experimental sessions that were separated by a minimum of 3 days. Subjects were given placebo or P (500 mg) tab-lets 60 min prior to glucose ingestion. Blood was drawn at baseline (−60 min) and monitored till 240 min relative to glucose ingestion.
(§2) Serum was separated from collected blood samples and stored at −80° C. for later analysis of glucose, total P, tri-glyceride and insulin. Glucose was measured from venous samples. Insulin sensitivity was estimated by the method of Caumo A, Bergman R N, Cobelli C. Insulin sensitivity from meal tolerance tests in normal subjects: a minimal model index. J Clin. Endocrinol. Metab. 2000; 85:4396-402 and expressed as (×10^4 dl·kg^−1·min^−1·μUml^−1). The method is based on the kinetic of both glucose and insulin through coupling their rate of appearance into circulation following oral glucose ingestion. It is based on simple area under the curve type of calculation and was validated in normal subjects in whom their calculated insulin sensitivity was strongly correlated to that of frequently […] sampled IV glucose test (FSIGT). In addition, index of insulin sensitivity was calculated using the composite equation proposed by Matsuda M, DeFronzo R A. Insulin sensitivity indices obtained from oral glucose tolerance testing: comparison with the euglycemic insulin clamp. Diabetes Care. 1999; 22 (9):1462-7.
(§3) Data are presented as means±SEM. Paired t-tests were used to compare between treatments and to detect the difference from baseline within each treatment. Repeated Measure ANOVA was run to test the effect of treatment groups over time on each of the dependent variables (P, Glucose and insulin). The level of significance was fixed at P <0.05.

[2] = tested on: subjects (unrestrained eaters, stable body weight); experiment: Ad libitum energy intake at subsequent meal after preloads with or without phosphorus; conditions: for Energy intake (ad libitum) at subsequent meal +P: lunch 80 min after preload, mean ± s.d.
Procedure: A preliminary set of experiments was conducted to investigate the effect of increased phosphorus content of a preload solution on subsequent food intake. The effect of water, sucrose (50 g), fructose (40 g fructose plus 10 g glucose) or glucose (50 g) preloads was examined with or without the addition of 500 mg of phosphorus (mixture of potassium and sodium phosphate). This work was approved by the Institutional Review Board of the American University of Beirut and written informed consent was obtained from all subjects. In brief, participants who had stable body weight for the last 3 months and were unrest-rained eaters as assessed by the three-factor eating questionnaire were selected. All subjects were regular breakfast consumers and were asked to maintain their regular dietary and physical activity habits throughout the course of the example. Subjects were asked to avoid alcohol consumption, as well as any unusual strenuous exercise 24 h before the example. After a minimum of a 12-h fast, they consumed a standard breakfast (440 kcal) 4 h before presenting for the example. Participants chose a time between 1100 and 1400 to be convenient to perform the test; thereafter, they were asked to arrive at the same time on the same day of the week for the second study session. Thus, each experiment used a within-subject design, wherein each participant served as his or her own control.
In each experiment, two chilled preloads (with or without added phosphorus) were offered in a blind randomized order so as to control for the order-of-treatment effect. Each subject presented for two study days separated by a minimum of 1 week. […] At 80 min after the preload, an ad libitum lunch, consisting of standard pizza and water, was offered. Subjects were asked to eat freely until they felt ‘comfortably full’; both food and water intakes were measured. Water intake was measured by weight (g) and food or energy intake (kcal) was obtained from the overall weight of pizza consumed.

healthy male subjects [3] = experiment: Experiment 1: effect of phosphorus ingestion on oral glucose tolerance test (OGTT)
Procedure: as §1
Seven overnight fasted subjects (age (mean±SEM): 23.2±1.83 years; BMI: 22.65±0.82 kg/m2) (Table 1: Experiment 1) were asked to attend 3 experimental sessions that were separated by a minimum of 3 days. Sessions included the consumption of either 500 mg of P (4 tablets), a glucose solution (75 g glucose) with 4 Placebo tablets, or a glucose solution (75 g glucose) with 500 mg P. All were ingested with 250 ml of cold water. Blood was withdrawn at base-line and monitored till 240 min (min) after consumption.
as §2, §3

overweight/obese adults = experiment: 12-week double-blind randomized placebo-controlled phosphorus supplementation study
Procedure: Participants: After approval of the study by the institutional review board at the American University of Beirut (Beirut, Lebanon), 63 adults aged 18 to 45 years with a BMI ≥25 kgm−2, who provided signed informed consent, were recruited from the general public using poster advertisements or direct approach. Exclusion criteria included glomerular filtration rate of 60 ml min−1 per 1.73 m^2, presence of any significant medical disease, pregnancy or lactation, regular administration of drugs that affect body weight and weight change of ≥3% within 3 months before the study. The enrollment of 40 subjects (20 per group) would detect a 10% change in weight of the placebo group, assuming the latter having a mean weight of 90 kg and s.d. of 10 kg, with 80% power and an a of 5%.
This double-blind, randomized, controlled study allocated subjects into placebo group (n=21) or phosphorus group (n=26). Participants were requested to take three tablets containing either 375 mg phosphorus or a placebo (Nutricap Labs, Farmingdale, N.Y., USA) with each main meal (breakfast, lunch and dinner) for 12 weeks. They were asked to maintain regular dietary and physical activity habits during the entire study course and avoid alcohol consumption and any strenuous exercise 24 h before their visits (at baseline, 6 weeks and 12 weeks). Assignment to intervention or control group was made by having the principle investigator (corresponding author) ask the eligible subjects to blindly draw an envelope from a large box of 100 opaque, sealed envelopes (50 for each group), each containing a 2-cm by 2-cm paper with a written code designating intervention or control. There were no detectable differences in size or weight between intervention and control envelopes. In addition, both researchers and participants were blinded for the type of supplements that were similar in size, shape, color and odor.
Subjects were asked to attend the research unit at baseline and after 6 and 12 weeks of participation. At baseline, anthropometric measurements and blood samples were collected and a subjective appetite questionnaire based on Wilson et al. Appetite assessment: simple appetite questionnaire predicts weight loss in community-dwelling adults and nursing home residents. AJCN 2005; 82:1074-1081 was completed. Participants were given a 6-week supply of the allocated supplement and were asked to attend the research unit at the end of this period. At 6 weeks, remaining tablets were collected and counted in order to assess adherence to the allocated intervention. Participants were then given a supply of the same type of supplementation for the consequent 6 weeks and were asked to complete the subjective appetite questionnaire. At 12 weeks, data were collected similar to the baseline visit, and remaining tablets were counted to assess compliance. Individuals who consumed […] of the allocated tablets were excluded. Body weight and height (without shoes) were measured to the nearest 0.1 kg and 0.1 cm, using a calibrated Seca balance (Hamburg, Germany) and a portable stadiometer, respectively. […] Serum phosphorus, creatinine, C-reactive protein, total cholesterol, high-density lipoprotein cholesterol, triglyceride and glucose levels were measured using the Vitros 350 analyzer (Ortho Clinical Diagnostics, Johnson and Johnson, Buckinghamshire, UK). […] Fasting insulin concentration was measured using the ELISA kit (Diametra Millipore, Billerica, Mass., USA). […]

[4] = Experiment 2 (n = 8), 500 mg P 60 min prior to 75 g glucose, mean ± SEM

## [P] [Phosphorus, phosphorus]
Lean male subjects; 4 hours, p=0.007
  Postprandial energy expenditure vs placebo: significantly higher
Lean male subjects; p=0.022
  Fat oxidation (%): significant rise
Lean male subjects; p=0.023
  Carbohydrate oxidation (%): decreased
Healthy male subjects [1]; 500 mg P preload 60 min before 75 g glucose
  Magnitude of insulin increase vs placebo preload: modestly lower
Healthy male subjects [1]; 500 mg P preload 60 min before glucose, time 0 and 15 min, then returned to baseline
  Serum P levels following P ingestion: increased significantly
Healthy male subjects [1]; [4]
  Insulin sensitivity [29]: 18.39 ± 3.28 ×10^4 dl·kg^−1·min^−1·μUml^−1
  Insulin sensitivity index [30]: 8.88 ± 0.78
[2]; Fructose (40 g fructose plus 10 g glucose) preload with 500 mg added phosphorus
  Energy intake (ad libitum) at subsequent meal +P: 676 ± 404 kcal
[2]; Glucose (50 g) preload with 500 mg added phosphorus
  Energy intake (ad libitum) at subsequent meal +P: 652 ± 291 kcal
[2]; Sucrose (50 g) preload with 500 mg added phosphorus
  Energy intake (ad libitum) at subsequent meal +P: 532 ± 341 kcal
[2]; Water preload with 500 mg added phosphorus
  Energy intake (ad libitum) at subsequent meal +P: 1119 ± 210 kcal
[2]; phosphorus added to fructose preload
  Reduction in energy intake at the subsequent meal: 35%
[2]; phosphorus added to glucose preload
  Reduction in energy intake at the subsequent meal: 25%
[2]; phosphorus added to sucrose preload
  Reduction in energy intake at the subsequent meal: 33%
[2]; phosphorus added to water preload
  Reduction in energy intake at the subsequent meal: 27%
Healthy male subjects [3]; 500 mg P alone
  Postprandial insulin concentration: did not alter postprandial insulin concentration
  Postprandial serum P: increased serum P significantly
Healthy male subjects [3]; 500 mg P alone, during the experimental session (240 min), believed to be the result of fasting
  Decrease in postprandial serum glucose concentration: around 5 mg/dl
Healthy male subjects [3]; Experiment 1 (n = 7), 500 mg P co-ingested with 75 g glucose, mean ± SEM, Caumo et al. formula
  Insulin sensitivity [29]: 20.22 ± 6.65 ×10^4 dl·kg^−1·min^−1·μUml^−1
Healthy male subjects [3]; Experiment 1 (n = 7), 500 mg P co-ingested with 75 g glucose, mean ± SEM, Matsuda composite equation
  Insulin sensitivity index [30]: 7.00 ± 1.06
Healthy male subjects [3]; G+P (75 g glucose + 500 mg P), time 60 min, P=0.002
  Insulin levels vs glucose treatment: significantly lower
Healthy male subjects [3]; G+P (75 g glucose + 500 mg P), time 60 min, P=0.016
  Magnitude of increase in postprandial serum glucose vs glucose treatment: significantly lower
overweight/obese adults; 375 mg phosphorus with each main meal, 12 weeks, 95% CI −0.59 to 0.12, P=0.01 vs placebo
  Change in BMI from baseline: −0.24 kgm−2
overweight/obese adults; 375 mg phosphorus with each main meal, 12 weeks, 95% CI −1.69 to 0.40, P=0.01 vs placebo
  Decrease in body weight from baseline: 0.65 kg
overweight/obese adults; 375 mg phosphorus with each main meal, 12 weeks, 95% CI −4.90 to −2.33
  Reduction in waist circumference from baseline: 3.62 cm
overweight/obese adults; baseline to 12 weeks
  Changes in subjective appetite scores (appetite, quantity of food to reach fullness, taste of food, number of snacks) vs placebo: significantly reduced
overweight/obese adults; over the experimental period (12 weeks)
  Side effects: No side effects were reported
